In patent US20250205304A1, “CD300LD INHIBITOR AND USE THEREOF IN THE PREPARATION OF TUMOR IMMUNOTHERAPY PRODUCTS” (FUDAN UNIVERSITY, priority 2021, published 2025):

B1: S100A8/A9 proteins: S100A8/A9 proteins added in the in vitro migration assay (protein, UniProt P05109 1-93; P06702 1-114, looked up)
Protein S100-A8: MLTELEKALNSIIDVYHKYSLIKGNFHAVYRDDLKKLLETECPQYIRKKGADVWFKELDINTDGAVNFQEFLILVIKMGVAAHKKSHEESHKE
Protein S100-A9: MTCKMSQLERNIETIINTFHQYSVKLGHPDTLNQGEFKELVRKDLQNFLKKENKNEKVIEHIMEDLDTNADKQLSFEEFIMLMARLTWASHEKMHEGDEGPGHHHKPGLGEGTP

How the values were obtained:
B16 tumor = B16 tumor model with intraperitoneal Tasquinimod; type: in vivo, mice; details: for tumor growth: 20 μg/mouse intraperitoneally
Method: 7-2) Tumor model: B16 cells (1.5×10^5 cells/mouse) were inoculated into mice subcutaneously, and 20 μg of Tasquinimod/mouse was injected intraperitoneally on day 2. Tumor size was measured every 2-3 days, and tumor growth curves were plotted. Tumors were isolated from mice on day 19, and the percentage of immune cells was determined by flow analysis.

PMN-MDSC [1] = assay: T cell proliferation inhibition assay of PMN-MDSC; type: cell-based, mice
Method: 6-4) T cell proliferation assay: spleens of OT-1 mice were isolated, single-cell suspensions in PBS (5×10^7 cells/ml) were prepared, and CTV dye with a final concentration of […] was added to obtain a mixture. The mixture was incubated in a 37° C. water bath for 20 minutes, added with 5 times the volume of ice pre-cooled RPMI medium (RPMI-1640+10% FBS), mixed by inversion, stood at room temperature for 5 minutes, centrifuged for 5 minutes at 400 g, and then resuspended in RPMI medium (1×10^6 cells/ml). 80 μl of CTV-labeled cells was added with 40 μl of OVA peptide at a concentration of 100 ng/ml, and then supplemented with 80 μl of RPMI medium. The solution was added to the wells of a 96-well U bottom plate and incubated at 37° C. in a carbon dioxide incubator, and then antibody labeling and flow assay were carried out 48-72 hr later.
6-5) T cell proliferation inhibition assay of PMN-MDSC: spleens of B16 tumor-bearing mice were isolated, single-cell suspensions were prepared and labeled with antibodies, and PMN-MDSC cells (CD45^+/CD11b^+/Lying6G^+) were sorted by flow cytometry and resuspended in RPMI medium (1×10^6 cells/ml). 80 μl of CTV-labeled cells in […]) was added with 40 μl of OVA peptide at a concentration of 100 ng/ml, PMN-MDSC cells, and culture medium. […]

PMN-MDSC [2] = assay: PMN-MDSC in vitro cell migration assay (Transwell); type: cell-based, mice; details: KO PMN-MDSCs, 2 hr
Method: 6-2) PMN-MDSC in vitro cell migration assay (Transwell): single-cell suspensions were prepared from isolated spleens of tumor-bearing mice and labeled with antibodies, and PMN-MDSC cells (CD45+/CD11b+/Ly6G+) were sorted. 10^5 PMN-MDSC cells were added to the upper layer of Transwell and then placed in a 37° C. incubator for 2 hr, and then the number of PMN-MDSC cells in the lower layer was analyzed by flow assay to calculate the migration ratio of the cells.
7-1) PMN-MDSC in vitro cell migration assay (Transwell): spleens of B16 tumor-bearing mice were isolated, single-cell suspensions were prepared and labeled with antibodies, and PMN-MDSC cells (CD45+/CD11b+/Lying6G+) were sorted by flow cytometry. 10^5 PMN-MDSC cells were added to the upper layer of Transwell and then placed in a 37° C. incubator, and then S100A8/A9 inhibitor (Tasquinimod) or DMSO control with a final concentration of 1 μg/ml was added, the number of PMN-MDSC cells in the lower layer was analyzed by flow-assay after 2 hr, and the percentage of cell migration was calculated.

Molecule	tumor growth (B16 tumor; CD300LD KO mice)	tumor growth (B16 tumor; WT mice)	proportion of intratumoral PMN-MDSCs (B16 tumor; tumors isolated on day 19, WT and KO mice)	inhibitory effect of PMN-MDSCs on T cell proliferation (PMN-MDSC [1]; KO PMN-MDSCs)	inhibitory effect of PMN-MDSCs on T cell proliferation (PMN-MDSC [1]; WT PMN-MDSCs)	in vitro migration ability of PMN-MDSC (PMN-MDSC [2])
COc1cccc2c1c(O)c(C(=O)N(C)c1ccc(C(F)(F)F)cc1)c(=O)n2C [Tasquinimod]	barely inhibited tumor growth	inhibited tumor growth	consistent with the changes of tumors	little effect	significantly reduced the inhibitory effect	
B1						enhance the weakened migration ability
